Calls of active or inactive are those of the source.
Assays:
[1] = Luminescence Cell-Based/Microorganism Confirmation at Dose of Inhibitors of Trypanosoma cruzi Infection. [Related pubchem assays: 1885, 1968 ]; type: functional
[2] = inhibitors of intracellular T. cruzi replication, confirmation, NIH3T3 host cells, beta-gal luminescence (AID 2044); type: functional, cell-based;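 note: intracellular parasites grown in NIH/3T3 mouse fibroblasts as host cells; luminescent beta-galactosidase reporter signal from transgenic T. cruzi replicating inside host cells; inhibitors lower the luminescence signal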
[3] = Luminescence Cell-Based Secondary HTS screen to identify cytotoxic compounds of NIH3T3 cells. [Related pubchem assays: 1885, 1968 ]; type: functional
[4] = cytotoxicity toward NIH3T3 fibroblasts, dose response, counter-screen, cell-based, ATP luminescence, mouse fibroblasts (AID 2010); type: functional;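 note: cells exposed to compound for about 90 hours before reading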
[5] = cytotoxicity in NIH/3T3 mouse fibroblasts, dose response, cytotoxicity control, cell-based, mouse embryonic fibroblasts, dry powder, set 2 (AID 493247); type: functional; details: Fibroblast
[6] = test system: Trypanosoma cruzi; test: growth inhibition of intracellular Trypanosoma cruzi, dose response, cell-based, plate reader, dry powder, set 3 (AID 493197); type: functional
[7] = inhibitors of Trypanosoma cruzi host-cell infection, confirmation, beta-gal luminescence, NIH3T3 host cells (AID 2630); type: functional, cell-based; details: Mus musculus
[8] = T. cruzi growth inhibition in host cells, dose response, cell-based, plate reader, dry powder, set 2 (AID 652275); type: functional
[9] = T. cruzi intracellular amastigote growth inhibition, dose response, imaging, CA-I/72 strain, bovine embryo skeletal muscle, dry powder (AID 651885); type: functional, cell-based
[10] = molecular target: G-protein coupled receptor 55 (Homo sapiens, UniProt Q9Y2T6); test: GPR55 antagonists blocking LPI-driven arrestin recruitment, primary screen, imaging, U2OS, beta-arrestin-GFP, LPI agonist (AID 2013); type: functional;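 note: antagonist potency measured as reduced agonist-driven arrestin aggregation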
[11] = molecular target: T1, Peroxisome proliferator-activated receptor gamma (Homo sapiens, UniProt P37231); test: PPARg ligand-binding domain binders, dose response, PPARg partial agonist project, biochemical, TR-FRET, LanthaScreen (AID 504446)
T1 sequence (P37231 whole entry): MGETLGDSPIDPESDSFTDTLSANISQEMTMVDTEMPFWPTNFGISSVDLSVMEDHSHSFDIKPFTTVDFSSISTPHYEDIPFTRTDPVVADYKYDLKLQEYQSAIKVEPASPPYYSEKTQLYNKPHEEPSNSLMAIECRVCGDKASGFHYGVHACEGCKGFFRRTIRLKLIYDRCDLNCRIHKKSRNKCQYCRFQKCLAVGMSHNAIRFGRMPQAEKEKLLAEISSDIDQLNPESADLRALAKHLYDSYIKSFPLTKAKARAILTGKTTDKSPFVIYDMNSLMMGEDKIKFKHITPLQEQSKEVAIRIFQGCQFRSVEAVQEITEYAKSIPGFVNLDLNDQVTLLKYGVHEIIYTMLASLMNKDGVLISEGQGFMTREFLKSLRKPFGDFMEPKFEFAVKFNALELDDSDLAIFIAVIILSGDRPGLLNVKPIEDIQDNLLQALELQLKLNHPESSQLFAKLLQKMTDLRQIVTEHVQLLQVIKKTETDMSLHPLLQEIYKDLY

[12] = molecular target: T1, Peroxisome proliferator-activated receptor gamma; test: PPARg ligand-binding domain binders, dose response, PPARg partial agonist project, biochemical, fluorescence polarization, PolarScreen (AID 504453)
[13] = molecular target: T1, Peroxisome proliferator-activated receptor gamma; test: PPARg partial agonists, dose response, cell-based, luminescence, assay provider (AID 504447); type: functional
[14] = molecular target: DNA damage-inducible transcript 3 protein (Mus musculus, UniProt P35639); type: functional, Cricetulus griseus
[15] = Luminescence Cell-Based Dose Response HTS to Identify Activators of Luciferase Translation or Activity in H4 […] Cells. [Related pubchem assays: 1829 (Project Summary), 1814 (Primary HTS)]; type: functional
[16] = fluorescence interference artefacts, compound only, dose response, artefact control for cardiac thin filament activator project, biochemical, no RTF in test wells (AID 504697)
[17] = molecular target: Troponin, cardiac muscle (Homo sapiens, UniProt P19429+P45379+P63316); test: Fluorescence-based biochemical high throughput dose response assay for activators of the calcium sensitivity of cardiac Regulated Thin Filaments (RTF). [Related pubchem assays (depositor defined):AID493008, AID493018, AID504382, AID504383]; type: protein-complex assay
[18] = molecular target: Signal transducer and activator of transcription 3 (Homo sapiens, UniProt P40763); test: STAT3 inhibitors, late-stage profile, late-stage follow-up, cell-based, STAT1 panel, qPCR, cytotoxicity, panel member STAT3 Inhibition (AID 2078)
[19] = molecular target: Signal transducer and activator of transcription 1-alpha/beta (Homo sapiens, UniProt P42224); test: STAT3 inhibitors, late-stage profile, late-stage follow-up, cell-based, STAT1 panel, qPCR, cytotoxicity, panel member STAT1 Inhibition (AID 2078)
[20] = molecular target: T2, Kappa-type opioid receptor (Homo sapiens, UniProt P41145); test: SAR analysis of small molecule agonists of the kappa opioid receptor via a luminescent beta-arrestin assay - Set 3. [Related pubchem assays (depositor defined):AID1777, AID1785, AID1786, AID1966, AID2133, AID2136, AID2284, AID2500]; type: functional
[21] = molecular target: Phosphomannomutase 2 (Homo sapiens, UniProt O15305); test: Counter screen SAR assay for PMM2 inhibitors via a fluorescence intensity assay. [Related pubchem assays (depositor defined):AID1545, AID1574]
[22] = molecular target: Phosphoethanolamine/phosphocholine phosphatase (Homo sapiens, UniProt Q8TCT1); test: SAR assay for compounds that inhibit PHOSPHO1. [Related pubchem assays (depositor defined):AID1545, AID1565, AID1574]
[23] = molecular target: T3, Mu-type opioid receptor (Homo sapiens, UniProt P35372); test: MOR agonists by imaging, SAR follow-up, image-based (AID 2352); type: functional
[24] = molecular target: T4, Delta-type opioid receptor (Homo sapiens, UniProt P41143); test: DOR agonists, SAR follow-up, image-based (AID 2370); type: functional
[25] = molecular target: T2, Kappa-type opioid receptor; test: KOR antagonists by imaging, SAR follow-up, image-based (AID 2348); type: functional
[26] = molecular target: T3, Mu-type opioid receptor; test: MOR antagonists, SAR follow-up, image-based (AID 2420); type: functional;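 note: compounds added before stimulation of receptor with agonist DAMGO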
[27] = molecular target: T2, Kappa-type opioid receptor; test: KOR agonist analogs, imaging readout, SAR follow-up, image-based (AID 2359); type: functional
[28] = molecular target: Tyrosine-protein phosphatase non-receptor type 7 (Homo sapiens, UniProt P35236); test: SAR analysis of chemical inhibitors of HePTP using a Fluorescent assay - Set 2. [Related pubchem assays (depositor defined):AID1059, AID1077, AID1661, AID2085, AID521]; type: functional
[29] = molecular target: Dual specificity protein phosphatase 3 (Homo sapiens, UniProt P51452); test: SAR VHR1 Fluorescent Assay for In Vitro dose response studies Set 2. [Related pubchem assays (depositor defined):AID1654, AID1661, AID1878]; type: functional
[30] = molecular target: T4, Delta-type opioid receptor; test: DOR antagonists, SAR follow-up, image-based (AID 2357); type: functional
[31] = molecular target: T2, Kappa-type opioid receptor; test: kappa opioid receptor blockers, cell-based, luminescence, beta-arrestin, SAR follow-up (AID 2285); type: functional
[32] = molecular target: Intestinal-type alkaline phosphatase (Homo sapiens, UniProt P09923); test: human intestinal alkaline phosphatase activators, dose response, biochemical, luminescence, uHTS hits (AID 463120); type: functional
[33] = test system: HEK293; test: NOD1 signaling inhibitors, primary screen, cell-based, luminescence, uHTS (AID 1578); type: functional; details: Homo sapiens
[34] = test system: HEK293; test: cells; type: functional, cell-based; details: Homo sapiens
[35] = cells; type: functional, cell-based
[36] = test system: HEK293; test: cells; type: functional, cell-based; details: Homo sapiens; remark: listed apart in the source
[37] = molecular target: Nucleotide-binding oligomerization domain-containing protein 2 (Homo sapiens, UniProt Q9HC29); test: NOD2 signaling inhibitors, cell-based, luminescence, uHTS, HEK293 (AID 1566); type: functional
[38] = test system: HEK293; test: NOD2 signaling inhibitors in MDP-stimulated cells, cell-based, uHTS, luminescence (AID 2001); type: functional; details: Homo sapiens
[39] = test system: HEK293; test: cells; type: functional, cell-based; details: Homo sapiens; remark: listed apart in the source
[40] = cells; type: functional, cell-based; remark: listed apart in the source
[41] = molecular target: T5, Coagulation factor XII (Homo sapiens, UniProt P00748); test: Factor XIIa Dose Response Confirmation from Single Well HTS. [Related pubchem assays (depositor defined):AID701]; type: functional
T5 sequence (P00748 whole entry): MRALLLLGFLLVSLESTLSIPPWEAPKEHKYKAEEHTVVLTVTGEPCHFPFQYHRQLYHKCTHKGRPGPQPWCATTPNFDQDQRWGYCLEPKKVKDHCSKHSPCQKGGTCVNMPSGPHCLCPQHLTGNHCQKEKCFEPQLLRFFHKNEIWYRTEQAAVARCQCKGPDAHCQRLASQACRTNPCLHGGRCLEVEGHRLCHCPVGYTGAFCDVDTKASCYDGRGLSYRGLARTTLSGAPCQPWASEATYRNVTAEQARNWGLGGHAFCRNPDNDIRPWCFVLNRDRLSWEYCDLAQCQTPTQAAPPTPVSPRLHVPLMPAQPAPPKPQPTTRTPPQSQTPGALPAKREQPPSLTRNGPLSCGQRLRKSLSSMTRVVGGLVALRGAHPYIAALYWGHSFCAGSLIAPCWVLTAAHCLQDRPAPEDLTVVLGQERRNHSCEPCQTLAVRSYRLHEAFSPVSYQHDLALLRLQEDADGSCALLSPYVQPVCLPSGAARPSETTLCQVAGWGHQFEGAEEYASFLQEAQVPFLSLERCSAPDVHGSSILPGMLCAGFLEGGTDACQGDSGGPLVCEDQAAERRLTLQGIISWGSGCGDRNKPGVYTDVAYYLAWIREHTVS

COc1ccc(CCN(C)C(=O)C2CCCN(Cc3ccc(OC)c(OC)c3)C2)cc1OC (stereo unspecified)
EC50 [1]: 0.192 µM (active) | EC50 [2]: < 0.1 µM (active) | EC50 [3]: > 195 µM (not active) | EC50 [4]: > 60 µM (not active) | AC50 [5]: 80.4 µM (active) | AC50 [6]: 0.26 µM (active) | EC50 [7]: 0.192 µM (active) | AC50 [8]: 0.252 µM (active) | IC50 [9]: > 20 µM (inactive)

C=CCN1C(=O)/C(=C/Nc2ccc(Cc3ccncc3)cc2)C(=O)NC1=S
IC50 [10]: 0.543 µM (active)

Cc1ccc2nc(N3C(=O)C(O)=C(C(=O)c4ccc(C)o4)C3c3ccco3)sc2c1 (stereo unspecified)
IC50 [11]: 2.6 µM (active) | IC50 [12]: 22 µM (active) | EC50 [13]: 18 µM (active)

CCOC(=O)c1c(CN2CCOCC2)n(-c2ccccc2)c2cc(Br)c(O)cc12.Cl
Absolute IC50 (CHOP) [14]: 10 µM

N=c1oc2c3c4c(cc2cc1C(=O)Nc1ccccc1)CCCN4CCC3
EC50 [15]: 8.27 µM (active) | EC50 [16]: > 0.0109 µM (active) | EC50 [17]: > 0.0109 µM (active)

Fc1ccc(CC2CCN(c3ncnc4sccc34)CC2)cc1
IC50 [18]: 2.54 µM (active) | IC50 [19]: > 55.7 µM (inactive)

CCCCN(Cc1cc2cc(Cl)ccc2[nH]c1=O)C(=O)c1ccccc1
EC50 [20]: > 20 µM (inactive)

CC(C)(C)c1ccc(-n2sc3ccccc3c2=O)cc1
IC50 [21]: 82.5 µM (active) | IC50 [22]: 54.3 µM (inactive)

O=C(NC(NC(=S)Nc1ccccc1)C(Cl)(Cl)Cl)OCc1ccccc1 (stereo unspecified)
EC50 [23]: > 32 µM (inactive) | EC50 [24]: > 32 µM (inactive) | IC50 [25]: 17.6 µM (inactive) | IC50 [26]: > 32 µM (inactive) | EC50 [27]: > 32 µM (inactive) | IC50 [28]: > 100 µM (inactive) | IC50 [29]: > 100 µM (inactive) | IC50 [30]: > 32 µM (inactive) | IC50 [31]: > 10 µM (inactive)

Cc1ccc(Cl)cc1NC(=O)C(=O)N/N=C/c1ccc2c(c1)OCO2
EC50 [32]: 29.6 µM (active)

O=C(N/N=C/c1ccccn1)c1ccc(Cl)cc1
EC50 [33]: > 20 µM (inactive) | IC50 [34]: > 20 µM (inactive) | EC50 [35]: > 350 µM (not active) | IC50 [36]: > 20 µM (inactive) | EC50 [37]: > 20 µM (inactive) | IC50 [38]: 7.14 µM (inactive) | IC50 [39]: > 20 µM (inactive) | EC50 [40]: > 350 µM (not active)

CC(/N=c1\ccccn1C(=O)Nc1cccc(C(F)(F)F)c1)c1ccco1 (stereo unspecified)
IC50 [41]: > 50 µM (inactive)

Reference: ChEMBL document CHEMBL1201862, “PubChem BioAssay data set” (2004)
